Target: T1, Phosphatidylinositol 4,5-bisphosphate 3-kinase catalytic subunit delta isoform (Homo sapiens, UniProt O00329)
T1 sequence (O00329 whole entry): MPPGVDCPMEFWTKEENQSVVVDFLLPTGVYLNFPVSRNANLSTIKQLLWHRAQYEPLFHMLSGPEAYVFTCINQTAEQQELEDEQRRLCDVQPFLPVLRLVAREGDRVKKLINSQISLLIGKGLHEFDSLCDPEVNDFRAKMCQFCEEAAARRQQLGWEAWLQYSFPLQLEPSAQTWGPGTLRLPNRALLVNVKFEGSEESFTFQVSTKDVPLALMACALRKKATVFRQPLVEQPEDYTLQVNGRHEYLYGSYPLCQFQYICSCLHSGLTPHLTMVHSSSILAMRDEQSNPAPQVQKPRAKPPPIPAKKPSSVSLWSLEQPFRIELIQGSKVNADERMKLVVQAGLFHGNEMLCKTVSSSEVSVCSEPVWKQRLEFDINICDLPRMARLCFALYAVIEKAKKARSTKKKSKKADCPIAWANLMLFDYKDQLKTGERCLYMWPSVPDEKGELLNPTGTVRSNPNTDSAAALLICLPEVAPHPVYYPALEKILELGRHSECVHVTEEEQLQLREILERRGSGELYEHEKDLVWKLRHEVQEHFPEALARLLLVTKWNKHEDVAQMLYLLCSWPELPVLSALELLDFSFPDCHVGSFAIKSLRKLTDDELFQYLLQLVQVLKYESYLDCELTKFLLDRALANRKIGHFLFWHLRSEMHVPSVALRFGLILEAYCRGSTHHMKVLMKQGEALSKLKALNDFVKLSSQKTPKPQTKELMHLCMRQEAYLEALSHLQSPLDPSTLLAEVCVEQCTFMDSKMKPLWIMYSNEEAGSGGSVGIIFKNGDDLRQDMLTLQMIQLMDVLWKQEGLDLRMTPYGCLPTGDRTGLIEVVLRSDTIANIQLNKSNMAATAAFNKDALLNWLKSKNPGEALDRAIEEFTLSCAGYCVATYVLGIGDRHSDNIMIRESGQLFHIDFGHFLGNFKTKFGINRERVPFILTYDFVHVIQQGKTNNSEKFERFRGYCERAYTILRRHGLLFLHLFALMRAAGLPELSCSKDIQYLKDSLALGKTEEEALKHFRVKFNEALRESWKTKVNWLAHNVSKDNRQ
Assay: Scintillation Proximity Assay
Method: The kinase reaction was conducted in polystyrene 384-well matrix white plate from Thermo Fisher Scientific in a final volume of 25 uL. Inhibitors were first diluted serially in DMSO and added to the plate wells before the addition of other reaction components. The final concentration of DMSO in the assay was 0.5%. The PI3K assays were carried out at room temperature in 20 mM MOPS, pH 6.7, 10 mM MgCl2, 5 mM DTT and CHAPS 0.03%. Reactions were initiated by the addition of ATP, the final reaction mixture consisted of 20 uM PIP2, 20 uM ATP, 0.2 uCi [gamma-33P]ATP, 4 nM PI3Kdelta. […] 25 mM EDTA, 400 uM ATP. The final concentration of SPA beads was 1.0 mg/mL. After the plate sealing, plates were shaken overnight at room temperature and centrifuged at 1800 rpm for 10 minutes, the radioactivity of the product was determined by scintillation counting on Topcount (PerkinElmer).

SMILES	IC50 [nM]
COc1c(C(C)n2nc(C)c3c(N)ncnc32)cc(Cl)c(C)c1-c1ccnc(C(=O)C(C)C)c1 (stereo not drawn) [US10646492, Example 16]	< 10
CCOc1c(C(C)n2cc(C)c3c(N)ncnc32)cc(Cl)c(C#N)c1C1CN([C@@H](C)CO)C1 (stereo partly drawn) [US10646492, Example 309]	< 10
COc1c([C@H](C)n2cc(C)c3c(N)ncnc32)cc(Cl)c(C#N)c1C1CN([C@@H](C)CO)C1 [US10646492, Example 362]	< 10
